From US9598414B2, “Substituted benzo[5,6]azepino[3,2,1-hi]pyrido[4,3-b]indoles and substituted benzo[6,7][1,4]oxazepino[2,3,4-hi]pyrido[4,3-b]indoles for treating CNS disorders” (Daya Drug Discoveries, Inc., priority 2013, dated 2017)
Where two headings read alike, the source gives them in different places.

Columns and labels:
Histamine H2 = Histamine H2 (Homo sapiens, UniProt P25021); experiment: Receptor binding, H2
Serotonin 5-HT2B = Serotonin 5-HT2B (Homo sapiens, UniProt P41595); experiment: Receptor binding, 5-HT2B
Sequence of Serotonin 5-HT2B (P41595 whole entry): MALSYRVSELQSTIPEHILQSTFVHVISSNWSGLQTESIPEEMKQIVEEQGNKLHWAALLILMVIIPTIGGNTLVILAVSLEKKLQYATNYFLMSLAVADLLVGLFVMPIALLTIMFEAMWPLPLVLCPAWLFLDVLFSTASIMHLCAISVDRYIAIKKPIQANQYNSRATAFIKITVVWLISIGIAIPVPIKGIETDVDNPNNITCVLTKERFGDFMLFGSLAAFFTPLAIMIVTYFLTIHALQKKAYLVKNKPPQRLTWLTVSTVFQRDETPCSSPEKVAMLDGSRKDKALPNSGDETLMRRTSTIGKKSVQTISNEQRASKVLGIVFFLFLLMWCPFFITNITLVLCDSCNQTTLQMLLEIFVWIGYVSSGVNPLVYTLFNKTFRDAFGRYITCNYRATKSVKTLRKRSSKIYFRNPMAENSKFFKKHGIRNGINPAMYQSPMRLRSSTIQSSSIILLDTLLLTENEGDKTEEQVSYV

α-Adrenergic α2B = biological target: T1, α-Adrenergic α2B (Homo sapiens, UniProt P18089); experiment: Receptor binding, α2B
T1 sequence (P18089 1-450): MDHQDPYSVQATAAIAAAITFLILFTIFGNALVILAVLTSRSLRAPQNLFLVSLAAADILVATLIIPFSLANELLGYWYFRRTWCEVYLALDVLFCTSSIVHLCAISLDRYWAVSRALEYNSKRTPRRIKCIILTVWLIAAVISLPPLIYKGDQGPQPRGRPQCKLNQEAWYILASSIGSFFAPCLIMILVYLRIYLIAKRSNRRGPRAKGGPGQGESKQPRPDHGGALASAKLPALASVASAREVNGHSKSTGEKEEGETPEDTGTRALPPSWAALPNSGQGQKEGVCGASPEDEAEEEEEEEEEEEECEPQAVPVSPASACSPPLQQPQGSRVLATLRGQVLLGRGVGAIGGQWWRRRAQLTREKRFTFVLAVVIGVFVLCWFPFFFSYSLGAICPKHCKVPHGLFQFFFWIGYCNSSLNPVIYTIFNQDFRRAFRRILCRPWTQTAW

α-Adrenergic α2C = biological target: T2, α-Adrenergic α2C (Homo sapiens, UniProt P18825); experiment: Receptor binding, α2C
T2 sequence (P18825 1-462): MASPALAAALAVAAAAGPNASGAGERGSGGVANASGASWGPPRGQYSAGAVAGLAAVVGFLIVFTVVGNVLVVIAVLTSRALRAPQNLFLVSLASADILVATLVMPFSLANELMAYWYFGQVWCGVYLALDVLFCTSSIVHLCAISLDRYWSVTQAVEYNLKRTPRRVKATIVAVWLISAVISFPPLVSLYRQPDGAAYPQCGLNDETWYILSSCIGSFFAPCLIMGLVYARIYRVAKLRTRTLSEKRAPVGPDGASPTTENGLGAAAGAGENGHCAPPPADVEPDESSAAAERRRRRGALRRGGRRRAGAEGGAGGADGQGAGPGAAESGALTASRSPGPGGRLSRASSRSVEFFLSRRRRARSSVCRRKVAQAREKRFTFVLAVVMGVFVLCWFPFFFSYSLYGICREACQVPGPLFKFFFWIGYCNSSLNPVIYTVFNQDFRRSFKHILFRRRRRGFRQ

Serotonin 5-HT6 = Serotonin 5-HT6 (Homo sapiens, UniProt P50406); experiment: Receptor binding, 5-HT6; conditions: for Ki: 5-HT6
Sequence of Serotonin 5-HT6 (P50406 whole entry): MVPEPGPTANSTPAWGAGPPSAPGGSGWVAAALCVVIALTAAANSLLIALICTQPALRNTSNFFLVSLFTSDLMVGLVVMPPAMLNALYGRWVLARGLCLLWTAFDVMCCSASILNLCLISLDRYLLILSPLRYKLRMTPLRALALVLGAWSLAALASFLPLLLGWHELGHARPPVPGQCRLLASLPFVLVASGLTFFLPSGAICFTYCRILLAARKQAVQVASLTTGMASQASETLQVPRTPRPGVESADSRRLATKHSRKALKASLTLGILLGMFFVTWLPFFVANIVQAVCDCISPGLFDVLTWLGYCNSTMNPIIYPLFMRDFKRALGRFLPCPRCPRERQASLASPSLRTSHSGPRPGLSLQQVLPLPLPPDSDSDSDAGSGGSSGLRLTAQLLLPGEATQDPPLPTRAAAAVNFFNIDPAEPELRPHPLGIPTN

Serotonin 5-HT2C = biological target: T3, Serotonin 5-HT2C (Homo sapiens, UniProt P28335); experiment: Receptor binding, 5-HT2C; conditions: 5-HT2C
T3 sequence (P28335 33-458): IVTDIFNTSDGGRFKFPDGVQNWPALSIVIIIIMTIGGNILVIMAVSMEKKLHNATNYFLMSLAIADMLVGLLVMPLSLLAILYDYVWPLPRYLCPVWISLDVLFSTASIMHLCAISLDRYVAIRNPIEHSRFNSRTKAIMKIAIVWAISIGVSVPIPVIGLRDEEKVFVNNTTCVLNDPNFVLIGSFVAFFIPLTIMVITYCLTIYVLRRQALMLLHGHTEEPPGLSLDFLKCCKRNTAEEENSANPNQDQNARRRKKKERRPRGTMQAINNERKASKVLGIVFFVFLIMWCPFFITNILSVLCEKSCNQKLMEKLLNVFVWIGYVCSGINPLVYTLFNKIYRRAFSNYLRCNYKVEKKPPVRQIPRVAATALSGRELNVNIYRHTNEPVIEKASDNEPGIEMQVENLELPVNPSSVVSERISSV

α-Adrenergic α1B = α-Adrenergic α1B (Homo sapiens, UniProt P35368); experiment: Receptor binding, α1B
α-Adrenergic α2A = biological target: T4, α-Adrenergic α2A (Homo sapiens, UniProt P08913); experiment: Receptor binding, α2A
T4 sequence (P08913 1-465): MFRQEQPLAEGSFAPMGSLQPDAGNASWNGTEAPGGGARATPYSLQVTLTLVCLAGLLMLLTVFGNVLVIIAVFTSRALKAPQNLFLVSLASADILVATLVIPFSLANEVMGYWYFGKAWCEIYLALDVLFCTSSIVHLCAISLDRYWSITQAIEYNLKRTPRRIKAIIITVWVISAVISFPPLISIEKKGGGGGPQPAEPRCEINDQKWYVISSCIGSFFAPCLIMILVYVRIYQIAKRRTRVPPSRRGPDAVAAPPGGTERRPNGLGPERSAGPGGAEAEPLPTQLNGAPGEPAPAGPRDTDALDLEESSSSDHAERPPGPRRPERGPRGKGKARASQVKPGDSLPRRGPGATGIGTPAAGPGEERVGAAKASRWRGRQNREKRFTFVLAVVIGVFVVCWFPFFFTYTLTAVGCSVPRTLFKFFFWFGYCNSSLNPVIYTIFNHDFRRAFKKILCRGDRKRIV

Muscarinic M3 = Muscarinic M3 (Homo sapiens, UniProt P20309); experiment: Receptor binding, M3
Sequence of Muscarinic M3 (P20309 whole entry): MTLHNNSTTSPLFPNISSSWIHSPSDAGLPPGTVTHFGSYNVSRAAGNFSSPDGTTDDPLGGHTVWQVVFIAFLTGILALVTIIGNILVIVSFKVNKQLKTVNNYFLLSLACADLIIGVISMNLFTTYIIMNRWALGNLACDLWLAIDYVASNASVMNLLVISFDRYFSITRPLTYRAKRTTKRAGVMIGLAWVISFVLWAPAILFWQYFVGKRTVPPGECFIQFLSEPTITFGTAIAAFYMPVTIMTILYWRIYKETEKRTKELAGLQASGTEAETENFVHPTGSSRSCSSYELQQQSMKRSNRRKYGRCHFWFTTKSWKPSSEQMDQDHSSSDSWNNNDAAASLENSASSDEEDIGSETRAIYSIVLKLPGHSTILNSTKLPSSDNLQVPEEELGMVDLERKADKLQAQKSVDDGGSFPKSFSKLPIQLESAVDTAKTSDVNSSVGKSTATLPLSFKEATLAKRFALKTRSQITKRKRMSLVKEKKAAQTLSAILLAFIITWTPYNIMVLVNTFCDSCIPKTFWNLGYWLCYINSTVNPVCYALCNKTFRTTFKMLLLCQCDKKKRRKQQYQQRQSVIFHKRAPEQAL

Sigma σ2 = Sigma σ2 (Homo sapiens, UniProt Q5BJF2); experiment: Receptor binding, σ2; conditions: σ2
Sequence of Sigma σ2 (Q5BJF2 whole entry): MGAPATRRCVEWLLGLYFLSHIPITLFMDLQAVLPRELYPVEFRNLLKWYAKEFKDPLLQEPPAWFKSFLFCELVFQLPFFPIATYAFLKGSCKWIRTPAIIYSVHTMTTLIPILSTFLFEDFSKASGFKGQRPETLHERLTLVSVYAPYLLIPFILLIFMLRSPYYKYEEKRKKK

Serotonin 5-HT7 = Serotonin 5-HT7 (Homo sapiens, UniProt P34969); experiment: Receptor binding, 5-HT7; conditions: for Ki: 5-HT7
Sequence of Serotonin 5-HT7 (P34969 whole entry): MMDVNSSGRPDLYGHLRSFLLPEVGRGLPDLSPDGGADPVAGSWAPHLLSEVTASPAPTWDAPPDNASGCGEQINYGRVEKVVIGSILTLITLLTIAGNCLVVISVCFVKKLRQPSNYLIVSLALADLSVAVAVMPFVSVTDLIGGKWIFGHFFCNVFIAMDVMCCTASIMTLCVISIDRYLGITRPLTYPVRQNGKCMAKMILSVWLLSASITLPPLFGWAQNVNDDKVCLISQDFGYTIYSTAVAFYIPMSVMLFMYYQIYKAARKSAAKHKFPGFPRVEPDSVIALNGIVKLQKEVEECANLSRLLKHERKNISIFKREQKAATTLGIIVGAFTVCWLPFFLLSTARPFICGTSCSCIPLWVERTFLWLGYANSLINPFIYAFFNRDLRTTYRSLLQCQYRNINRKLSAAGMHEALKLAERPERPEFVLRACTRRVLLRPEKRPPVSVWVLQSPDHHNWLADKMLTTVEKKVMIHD

Muscarinic M5 = Muscarinic M5 (Homo sapiens, UniProt P08912); experiment: Receptor binding, M5
α-Adrenergic α1D = α-Adrenergic α1D (Homo sapiens, UniProt P25100); experiment: Receptor binding, α1D
Serotonin 5-HT1E = Serotonin 5-HT1E (Homo sapiens, UniProt P28566); experiment: Receptor binding, 5-HT1E
Dopamine D5 = Dopamine D5 (Homo sapiens, UniProt P21918); experiment: Receptor binding, D5
Serotonin 5-HT2A = Serotonin 5-HT2A (Homo sapiens, UniProt P28223); experiment: Receptor binding, 5-HT2A
Sequence of Serotonin 5-HT2A (P28223 whole entry): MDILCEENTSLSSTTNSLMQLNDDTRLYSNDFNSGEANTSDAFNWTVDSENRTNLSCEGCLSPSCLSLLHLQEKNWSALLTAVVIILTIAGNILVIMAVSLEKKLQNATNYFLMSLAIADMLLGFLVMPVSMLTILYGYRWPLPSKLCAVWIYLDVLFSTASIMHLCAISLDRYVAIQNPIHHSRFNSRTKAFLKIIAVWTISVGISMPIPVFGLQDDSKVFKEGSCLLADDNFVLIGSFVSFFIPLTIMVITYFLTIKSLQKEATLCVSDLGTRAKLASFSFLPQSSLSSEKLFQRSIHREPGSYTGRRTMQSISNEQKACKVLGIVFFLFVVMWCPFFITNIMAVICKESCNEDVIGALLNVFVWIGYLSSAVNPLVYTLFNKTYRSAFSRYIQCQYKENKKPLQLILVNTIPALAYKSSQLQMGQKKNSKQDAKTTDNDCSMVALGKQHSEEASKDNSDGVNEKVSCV

Opioid κ = Opioid κ (Homo sapiens, UniProt P41145); experiment: Receptor binding, opioid κ
α-Adrenergic α1A = α-Adrenergic α1A (Homo sapiens, UniProt P35348); experiment: Receptor binding, α1A
Muscarinic M1 = Muscarinic M1 (Homo sapiens, UniProt P11229); experiment: Receptor binding, M1
Serotonin 5-HT1B = Serotonin 5-HT1B (Homo sapiens, UniProt P28222); experiment: Receptor binding, 5-HT1B
Sequence of Serotonin 5-HT1B (P28222 whole entry): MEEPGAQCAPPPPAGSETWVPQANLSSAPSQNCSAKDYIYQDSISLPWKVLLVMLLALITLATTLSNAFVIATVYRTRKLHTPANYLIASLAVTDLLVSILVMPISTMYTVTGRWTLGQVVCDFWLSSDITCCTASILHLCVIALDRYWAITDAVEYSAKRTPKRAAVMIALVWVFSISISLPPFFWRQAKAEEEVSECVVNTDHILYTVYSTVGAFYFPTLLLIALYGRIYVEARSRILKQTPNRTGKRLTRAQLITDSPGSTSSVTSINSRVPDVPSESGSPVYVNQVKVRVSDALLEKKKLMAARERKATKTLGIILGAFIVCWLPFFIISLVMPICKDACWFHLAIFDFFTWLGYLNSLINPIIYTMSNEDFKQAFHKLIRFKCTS

Serotonin transporter = Serotonin transporter (Homo sapiens, UniProt P31645); experiment: Receptor binding, serotonin transporter
Sequence of Serotonin transporter (P31645 whole entry): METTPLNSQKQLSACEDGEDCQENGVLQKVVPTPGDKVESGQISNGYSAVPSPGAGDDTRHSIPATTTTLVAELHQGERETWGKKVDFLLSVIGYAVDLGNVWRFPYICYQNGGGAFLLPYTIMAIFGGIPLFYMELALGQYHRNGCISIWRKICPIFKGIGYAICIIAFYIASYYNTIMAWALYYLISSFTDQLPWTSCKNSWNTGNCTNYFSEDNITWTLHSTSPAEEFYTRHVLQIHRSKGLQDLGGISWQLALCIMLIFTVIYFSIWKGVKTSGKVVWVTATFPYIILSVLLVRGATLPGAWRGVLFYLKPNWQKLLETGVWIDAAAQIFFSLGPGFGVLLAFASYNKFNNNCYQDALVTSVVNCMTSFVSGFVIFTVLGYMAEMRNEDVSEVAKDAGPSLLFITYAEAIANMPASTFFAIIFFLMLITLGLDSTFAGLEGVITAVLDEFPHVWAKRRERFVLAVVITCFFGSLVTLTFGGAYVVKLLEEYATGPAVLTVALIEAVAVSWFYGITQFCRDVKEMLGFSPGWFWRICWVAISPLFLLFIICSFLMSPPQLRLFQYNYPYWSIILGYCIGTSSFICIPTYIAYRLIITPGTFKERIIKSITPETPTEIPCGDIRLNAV

Serotonin 5-HT1A = biological target: T5, Serotonin 5-HT1A (Homo sapiens, UniProt P08908); experiment: Receptor binding, 5-HT1A
T5 sequence (P08908 1-422): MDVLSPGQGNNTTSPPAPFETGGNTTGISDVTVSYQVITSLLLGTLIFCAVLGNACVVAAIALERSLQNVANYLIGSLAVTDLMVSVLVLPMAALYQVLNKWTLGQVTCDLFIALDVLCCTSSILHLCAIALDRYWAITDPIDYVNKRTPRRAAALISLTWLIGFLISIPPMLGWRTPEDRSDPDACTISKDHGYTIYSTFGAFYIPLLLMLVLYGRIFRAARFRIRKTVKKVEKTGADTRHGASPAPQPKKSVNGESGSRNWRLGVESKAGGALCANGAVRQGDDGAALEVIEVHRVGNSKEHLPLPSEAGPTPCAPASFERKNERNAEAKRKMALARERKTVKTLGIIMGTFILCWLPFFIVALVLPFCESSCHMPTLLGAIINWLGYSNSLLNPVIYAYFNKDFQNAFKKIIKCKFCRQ

Serotonin 5-HT5A = Serotonin 5-HT5A (Homo sapiens, UniProt P47898); experiment: Receptor binding, 5-HT5A
Serotonin 5-HT1D = Serotonin 5-HT1D (Homo sapiens, UniProt P28221); experiment: Receptor binding, 5-HT1D
Sequence of Serotonin 5-HT1D (P28221 whole entry): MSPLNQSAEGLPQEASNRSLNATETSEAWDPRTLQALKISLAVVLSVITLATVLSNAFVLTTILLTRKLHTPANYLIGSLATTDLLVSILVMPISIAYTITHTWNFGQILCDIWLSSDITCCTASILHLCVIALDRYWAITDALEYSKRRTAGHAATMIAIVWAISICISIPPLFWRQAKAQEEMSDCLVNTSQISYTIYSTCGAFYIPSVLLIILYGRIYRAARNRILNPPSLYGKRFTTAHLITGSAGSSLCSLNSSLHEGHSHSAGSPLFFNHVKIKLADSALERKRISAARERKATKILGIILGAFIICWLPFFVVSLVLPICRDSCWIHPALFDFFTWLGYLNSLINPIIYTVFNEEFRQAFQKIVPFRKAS

Histamine H1 = Histamine H1 (Homo sapiens, UniProt P35367); experiment: Receptor binding, H1; conditions: for Ki: H1
Sequence of Histamine H1 (P35367 whole entry): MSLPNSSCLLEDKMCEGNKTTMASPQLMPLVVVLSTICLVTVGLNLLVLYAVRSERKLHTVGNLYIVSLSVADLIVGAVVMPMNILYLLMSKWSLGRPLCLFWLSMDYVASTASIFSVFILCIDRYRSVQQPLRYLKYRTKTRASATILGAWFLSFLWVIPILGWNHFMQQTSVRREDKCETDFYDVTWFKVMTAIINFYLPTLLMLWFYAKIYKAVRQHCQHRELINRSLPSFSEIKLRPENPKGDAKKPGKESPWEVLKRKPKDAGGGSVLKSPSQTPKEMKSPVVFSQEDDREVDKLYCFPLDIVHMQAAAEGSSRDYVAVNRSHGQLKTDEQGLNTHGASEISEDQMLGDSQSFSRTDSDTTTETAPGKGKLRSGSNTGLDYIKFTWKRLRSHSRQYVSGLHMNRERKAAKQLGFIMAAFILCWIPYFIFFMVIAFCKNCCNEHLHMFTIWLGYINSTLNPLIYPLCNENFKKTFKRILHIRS

Dopamine D2 = Dopamine D2 (Homo sapiens, UniProt P14416); experiment: Receptor binding, D2
Dopamine D3 = Dopamine D3 (Homo sapiens, UniProt P35462); experiment: Receptor binding, D3
Sequence of Dopamine D3 (P35462 whole entry): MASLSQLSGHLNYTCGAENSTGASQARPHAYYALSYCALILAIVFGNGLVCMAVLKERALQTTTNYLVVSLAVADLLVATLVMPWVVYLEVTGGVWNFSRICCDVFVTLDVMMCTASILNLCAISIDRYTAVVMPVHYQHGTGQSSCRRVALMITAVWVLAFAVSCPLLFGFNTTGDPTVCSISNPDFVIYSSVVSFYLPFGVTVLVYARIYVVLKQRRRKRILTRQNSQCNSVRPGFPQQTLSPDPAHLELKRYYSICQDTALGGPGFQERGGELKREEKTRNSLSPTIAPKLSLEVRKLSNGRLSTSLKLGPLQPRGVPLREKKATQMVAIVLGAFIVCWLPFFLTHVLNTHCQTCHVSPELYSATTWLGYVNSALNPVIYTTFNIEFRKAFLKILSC

dopamine receptors = experiment: Receptor binding, dopamine receptors; conditions: any of the dopamine receptors, summary of Table 1
[1] = biological target: Norepinephrine transporter (Homo sapiens, UniProt P23975); experiment: Receptor binding, norepinephrine transporter; conditions: Transporters: Norepinephrine

SMILES | Ki (Serotonin 5-HT2B) | Ki (α-Adrenergic α2B) | Ki (α-Adrenergic α2C) | Ki (Serotonin 5-HT6) | Ki (α-Adrenergic α2A) | Ki (Sigma σ2) | Ki (Serotonin 5-HT7) | Ki (Serotonin 5-HT2A) | Ki (Serotonin 5-HT1B) | Ki (Serotonin 5-HT1A) | Ki (Serotonin 5-HT1D) | Ki (Histamine H1) | also measured
CN1CCc2c(c3cccc4c3n2-c2ccccc2CC4)C1 [Compound 6a, reference compound] | 87 nM | 413 nM | 173 nM | 155 nM | 228 nM | 2230 nM | 100 nM | 24 nM | 1360 nM | 596 nM | 85 nM | 50 nM | Ki (Histamine H2): 81 nM; Ki (Serotonin 5-HT2C): 10 nM; Ki (α-Adrenergic α1B): 3310 nM; Ki (Muscarinic M3): 3760 nM; Ki (Muscarinic M5): 5170 nM; Ki (α-Adrenergic α1D): 595 nM; Ki (Serotonin 5-HT1E): 4040 nM; Ki (Dopamine D5): 581 nM; Ki (Opioid κ): 2180 nM; Ki (α-Adrenergic α1A): 2370 nM; Ki (Muscarinic M1): 4460 nM; Ki (Serotonin transporter; Transporters: Serotonin): 2190 nM; Ki (Serotonin 5-HT5A): 750 nM; Ki (Dopamine D2): 835 nM
CN1CCc2c(c3cccc4c3n2Cc2ccccc2C4)C1 [Compound 13a] | 57 nM | 2190 nM | 770 nM | 273 nM | 1800 nM | 520 nM | 212 nM | 736 nM | 715 nM | 375 nM | 29 nM | 48 nM | Ki (Dopamine D3): 1500 nM; binding, in words (Serotonin 5-HT2B; summary of Table 1): strong binding; binding, in words (Serotonin 5-HT6; 5-HT6, text summary of Table 1): moderate binding; binding, in words (dopamine receptors): neither of the two compounds 13a and 13b binds significantly; binding, in words (Serotonin 5-HT7; 5-HT7, text summary of Table 1): moderate binding; Ki [1]: > 10000 nM; Ki (Serotonin transporter): 2190 nM; binding, in words (Serotonin 5-HT1A; summary of Table 1): moderate binding; binding, in words (Serotonin 5-HT1D; summary of Table 1): strong binding; binding, in words (Histamine H1; H1, text summary of Table 1): strong binding
